Data from patent US10519134B2, “Pyrazole compounds and methods of making and using same” (Lundbeck La Jolla Research Center, Inc., priority 2015, dated 2019).

Experiments:
[1] = target: T1, MAGL (Mus musculus, UniProt O35678); assay: In vitro competitive activity-based protein profiling (mouse), MAGL gel band; assay type: biochemical; conditions: for IC50: mouse; for inhibition at 1 µM: read-out: MAGL % inh. 1 μM
T1 construct: Proteomes (mouse brain membrane fraction or cell lysates); from tissue; host or cells: mouse brain membrane fraction (or cell lysates)
T1 sequence (O35678 1-303): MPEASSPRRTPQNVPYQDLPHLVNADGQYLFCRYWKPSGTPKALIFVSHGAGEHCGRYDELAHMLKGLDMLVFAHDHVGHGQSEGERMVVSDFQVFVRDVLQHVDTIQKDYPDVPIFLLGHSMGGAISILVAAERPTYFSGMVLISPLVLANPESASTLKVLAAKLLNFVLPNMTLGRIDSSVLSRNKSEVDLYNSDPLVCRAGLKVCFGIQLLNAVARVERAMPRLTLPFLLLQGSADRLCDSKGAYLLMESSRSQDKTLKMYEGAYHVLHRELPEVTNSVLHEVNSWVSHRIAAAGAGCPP
In short: (§1)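 Mouse brain membrane proteome or cell lysate (1.0 mg/mL protein) preincubated 30 min at 37 °C with varying inhibitor concentrations, then labelled 30 min at 37 °C with FP-Rh or HT-01 probe (50 μM stock). After SDS-PAGE, activity taken from fluorescent intensity of the MAGL and FAAH gel bands.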

[2] = target: T2, FAAH (Mus musculus, UniProt O08914); assay: In vitro competitive activity-based protein profiling (mouse), FAAH gel band; assay type: biochemical; conditions: for IC50: mouse; for inhibition at 1 µM: read-out: FAAH % inh. 1 μM
T2 construct: Proteomes (mouse brain membrane fraction or cell lysates); from tissue; host or cells: mouse brain membrane fraction (or cell lysates)
T2 sequence (O08914 1-579): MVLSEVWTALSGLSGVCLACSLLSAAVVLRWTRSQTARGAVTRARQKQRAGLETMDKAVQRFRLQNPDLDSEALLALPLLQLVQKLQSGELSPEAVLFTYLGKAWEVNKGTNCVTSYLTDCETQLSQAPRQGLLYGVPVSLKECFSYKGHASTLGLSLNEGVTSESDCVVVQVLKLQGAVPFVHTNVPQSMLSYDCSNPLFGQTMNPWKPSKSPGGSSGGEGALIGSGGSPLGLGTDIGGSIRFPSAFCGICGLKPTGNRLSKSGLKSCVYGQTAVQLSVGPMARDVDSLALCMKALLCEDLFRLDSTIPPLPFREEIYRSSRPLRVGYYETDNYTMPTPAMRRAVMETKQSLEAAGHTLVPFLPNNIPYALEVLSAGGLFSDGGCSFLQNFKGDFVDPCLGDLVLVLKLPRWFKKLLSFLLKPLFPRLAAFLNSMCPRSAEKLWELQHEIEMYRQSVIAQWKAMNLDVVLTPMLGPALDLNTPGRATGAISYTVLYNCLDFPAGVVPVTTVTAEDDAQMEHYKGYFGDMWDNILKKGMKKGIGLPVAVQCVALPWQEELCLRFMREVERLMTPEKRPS
In short: as §1

[3] = target: T1, MAGL; assay: Mouse brain proteomes from inhibitor treated mice (oral gavage, sacrificed 4 h after administration); assay type: in vivo; conditions: read-out: MAGL % inh. 5 mg/kg
Procedure: Compounds are tested to assess their MAGL and other serine hydrolase activity using the following in vitro and in vivo assays.
Preparation of Mouse Brain Proteomes from Inhibitor Treated Mice.
Inhibitors were administered to wild-type C57Bl/6J by oral gavage in a vehicle of polyethylene glycol. Each animal was sacrificed 4 h following administration and brain proteomes were prepared and analyzed according to previously established methods (See Niphakis, M. J., et al. (2011) ACS Chem. Neurosci. and Long, J. Z., et al. Nat. Chem. Biol. 5:37-44)

SMILES | IC50 [1] [nM] | inhibition at 1 µM [1] [%] | IC50 [2] [nM] | inhibition at 1 µM [2] [%] | inhibition at 5 mg/kg [3] [%]
CCN1CCN(c2cc(C(F)(F)F)ccc2CN2CCCC23CCN(C(=O)n2ccc(NC(C)=O)n2)CC3)CC1 [Example 31, N-(1-(1-(2-(4-ethylpiperazin-1-yl)-4-(trifluoromethyl)benzyl)-1,8-diazaspiro[4.5]decane-8-carbonyl)-1H-pyrazol-3-yl)acetamide] | 100 to 1000 | ≥ 75 | 1000 to 10000 | 0 to 25 | 25 to 50
CC(=O)Nc1ccn(C(=O)N2CCC3(CCCN3Cc3ccc(C(F)(F)F)cc3N3CCC(F)CC3)CC2)n1 [Example 12, N-(1-(1-(2-(4-fluoropiperidin-1-yl)-4-(trifluoromethyl)benzyl)-1,8-diazaspiro[4.5]decane-8-carbonyl)-1H-pyrazol-3-yl)acetamide] | ≤ 100 | ≥ 75 | 1000 to 10000 | 0 to 25 | 0 to 25
CC(=O)Nc1ccn(C(=O)N2CCN(Cc3ccc(C(F)(F)F)cc3N3CCC4(CC3)CCN(S(C)(=O)=O)C4)CC2)n1 [Example 43, N-(1-(4-(2-(2-(methylsulfonyl)-2,8-diazaspiro[4.5]decan-8-yl)-4-(trifluoromethyl)benzyl)piperazine-1-carbonyl)-1H-pyrazol-3-yl)acetamide] | ≤ 100 | ≥ 75 | 1000 to 10000 | 0 to 25 | 0 to 25
CC(=O)Nc1ccn(C(=O)N2CCN(Cc3ccc(C(F)(F)F)cc3N3CCC(F)CC3)CC2)n1 [Example 4, N-(1-(4-(2-(4-fluoropiperidin-1-yl)-4-(trifluoromethyl)benzyl)piperazine-1-carbonyl)-1H-pyrazol-3-yl)acetamide] | ≤ 100 | ≥ 75 | 1000 to 10000 | 0 to 25 | ≥ 75
CC(=O)Nc1ccn(C(=O)N2CCC3(CCCN3Cc3ccc(Cl)cc3N3CCCC3)CC2)n1 [Example 14, N-(1-(1-(4-chloro-2-(pyrrolidin-1-yl)benzyl)-1,8-diazaspiro[4.5]decane-8-carbonyl)-1H-pyrazol-3-yl)acetamide] | ≤ 100 | ≥ 75 | 1000 to 10000 | 0 to 25 | 25 to 50
CC(=O)Nc1ccn(C(=O)N2CCN(Cc3ccc(Cl)cc3N3CC4CCC(C3)O4)CC2)n1 [Example 51, N-(1-(4-(2-(8-oxa-3-azabicyclo[3.2.1]octan-3-yl)-4-chlorobenzyl)piperazine-1-carbonyl)-1H-pyrazol-3-yl)acetamide] | ≤ 100 | ≥ 75 | 1000 to 10000 | 0 to 25 | 25 to 50

Second part, the compound after the results:

IC50 [1] [nM] | inhibition at 1 µM [1] [%] | IC50 [2] [nM] | inhibition at 1 µM [2] [%] | inhibition at 5 mg/kg [3] [%] | SMILES
≤ 100 | ≥ 75 | 1000 to 10000 | 0 to 25 | 0 to 25 | CC(=O)Nc1ccn(C(=O)N2CCN(Cc3ccc(C(F)(F)F)cc3OCC(=O)N3CCCC3)CC2)n1 [Example 79, N-(1-(4-(2-(2-oxo-2-(pyrrolidin-1-yl)ethoxy)-4-(trifluoromethyl)benzyl)piperazine-1-carbonyl)-1H-pyrazol-3-yl)acetamide]
≤ 100 | ≥ 75 | 1000 to 10000 | 0 to 25 | 0 to 25 | CC(=O)Nc1ccn(C(=O)N2CCC3(CCCN3Cc3ccc(C(N)=O)c(C(F)(F)F)c3)CC2)n1 [Example 109, 4-((8-(3-acetamido-1H-pyrazole-1-carbonyl)-1,8-diazaspiro[4.5]decan-1-yl)methyl)-2-(trifluoromethyl)benzamide]
≤ 100 | ≥ 75 | 1000 to 10000 | 0 to 25 | 0 to 25 | CC(=O)Nc1ccn(C(=O)N2CCN(Cc3ccc(C(F)(F)F)cc3N3CCN(C(C)=O)CC3)CC2)n1 [Example 42, N-(1-(4-(2-(4-acetylpiperazin-1-yl)-4-(trifluoromethyl)benzyl)piperazine-1-carbonyl)-1H-pyrazol-3-yl)acetamide]
